Here are results for twelve compounds from patent publication US20230372498A1, “PLK1 SELECTIVE DEGRADATION INDUCING COMPOUND” (UPPTHERA, priority 2020, published 2023).

Molecules are shown by their SMILES.

In this experiment the target is T1, PLK1 (Homo sapiens, UniProt P53350).
T1 construct: endogenous in cells; host or cells: HeLa
Briefly: PLK1 protein degradation in HeLa cells, Western blotting (PLK1/GAPDH ratio). The class given is cell-based. As to conditions: 6 hours compound incubation; for DC50: measured only if the grade of Dmax is A or B; for Dmax: thymidine block and release, 10 points three-fold from 3 μM, PLK1 to GAPDH ratio, read-out: Dmax. The essentials:
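Thymidine-synchronised HeLa cells (2 mM, 24 h) released 4 h into complete medium, then treated 6 h with compound in 10-point 3-fold dilutions from 3 μM. RIPA lysates (15 μg protein) run on SDS-PAGE; PLK1 Western blot normalised to GAPDH.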

T1 sequence (P53350 whole entry): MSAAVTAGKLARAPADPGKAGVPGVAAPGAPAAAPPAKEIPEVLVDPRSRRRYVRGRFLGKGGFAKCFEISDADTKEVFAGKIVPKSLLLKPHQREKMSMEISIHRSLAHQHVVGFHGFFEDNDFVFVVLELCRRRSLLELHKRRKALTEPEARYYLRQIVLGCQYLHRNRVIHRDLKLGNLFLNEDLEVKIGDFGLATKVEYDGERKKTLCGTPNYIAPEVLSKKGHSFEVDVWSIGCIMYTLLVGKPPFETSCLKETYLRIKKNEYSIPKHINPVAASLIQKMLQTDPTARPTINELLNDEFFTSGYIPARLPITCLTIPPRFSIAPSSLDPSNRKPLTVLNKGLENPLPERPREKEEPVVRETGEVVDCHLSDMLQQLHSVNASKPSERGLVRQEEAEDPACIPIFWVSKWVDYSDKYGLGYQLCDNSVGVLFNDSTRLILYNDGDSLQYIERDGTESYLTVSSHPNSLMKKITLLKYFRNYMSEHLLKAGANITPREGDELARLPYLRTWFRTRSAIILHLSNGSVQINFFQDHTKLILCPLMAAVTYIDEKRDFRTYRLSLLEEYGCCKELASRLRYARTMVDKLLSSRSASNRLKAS

Take `COc1cc(C(=O)NC2CCN(C(=O)N3CCN(c4cccc5c4C(=O)N(C4CCC(=O)NC4=O)C5=O)CC3)CC2)c(F)cc1Nc1ncc2c(n1)N(C1CCCC1)CC(F)(F)C(=O)N2C` (stereo not drawn) [Compound 69, 4-((9-cyclopentyl-7,7-difluoro-5-methyl-6-oxo-6,7,8,9-tetrahydro-5H-pyrimido[4,5-b][1,4]diazepin-2-yl)amino)-N-(1-(4-(2-(2,6-dioxopiperidin-3-yl)-1,3-dioxoisoindolin-4-yl)piperazine-1-carbonyl)piperidin-4-yl)-2-fluoro-5-methoxybenzamide]: the DC50 (commonly the concentration giving 50% degradation) was at most 0.05 µM and the greatest degradation seen (Dmax) – broadly, the largest share of the target that was removed – was at least 80%.

For the compound `COc1cc(C(=O)NC2CCN(CCCCCCNc3cccc4c3C(=O)N(C3CCC(=O)NC3=O)C4=O)CC2)c(F)cc1Nc1ncc2c(n1)N(C1CCCC1)CC(F)(F)C(=O)N2C` (stereo not drawn) [Compound 10, 4-((9-cyclopentyl-7,7-difluoro-5-methyl-6-oxo-6,7,8,9-tetrahydro-5H-pyrimido[4,5-b][1,4]diazepin-2-yl)amino)-N-(1-(6-((2-(2,6-dioxopiperidin-3-yl)-1,3-dioxoisoindolin-4-yl)amino)hexyl)piperidin-4-yl)-2-fluoro-5-methoxybenzamide], the DC50 was at most 0.5 µM and the greatest degradation seen (Dmax) fell in the range of 60 to 80%.

Consider `COc1cc(C(=O)NC2CCN(CCCCCCCc3cccc(CNC(=O)COc4cccc5c4C(=O)N(C4CCC(=O)NC4=O)C5=O)c3)CC2)c(F)cc1Nc1ncc2c(n1)N(C1CCCC1)CC(F)(F)C(=O)N2C` (stereo not drawn) [Compound 63, 4-((9-cyclopentyl-7,7-difluoro-5-methyl-6-oxo-6,7,8,9-tetrahydro-5H-pyrimido[4,5-b][1,4]diazepin-2-yl)amino)-N-(1-(7-(3-((2-((2-(2,6-dioxopiperidin-3-yl)-1,3-dioxoisoindolin-4-yl)oxy)acetamido)methyl)phenyl)heptyl)piperidin-4-yl)-2-fluoro-5-methoxybenzamide], for which the half-maximal degradation concentration (DC50) is at most 0.05 µM and the greatest degradation seen (Dmax) is at least 80%.

Regarding `COc1cc(C(=O)NC2CCN(CCOCCOCCNc3cccc4c3CN(C3CCC(=O)NC3=O)C4=O)CC2)c(F)cc1Nc1ncc2c(n1)N(C1CCCC1)CC(F)(F)C(=O)N2C` (stereo not drawn) [Compound 75, 4-((9-cyclopentyl-7,7-difluoro-5-methyl-6-oxo-6,7,8,9-tetrahydro-5H-pyrimido[4,5-b][1,4]diazepin-2-yl)amino)-N-(1-(2-(2-(2-((2-(2,6-dioxopiperidin-3-yl)-1-oxoisoindolin-4-yl)amino)ethoxy)ethoxy)ethyl)piperidin-4-yl)-2-fluoro-5-methoxybenzamide], the DC50 was at most 0.05 µM and the Dmax is at least 80%.

For `CN1C(=O)C(F)(F)CN(C2CCCC2)c2nc(Nc3ccc(C(=O)NC4CCN(CCOCCOCCNc5cccc6c5C(=O)N(C5CCC(=O)NC5=O)C6=O)CC4)cc3OCCO)ncc21` (stereo not drawn) [Example 98, 4-((9-cyclopentyl-7,7-difluoro-5-methyl-6-oxo-6,7,8,9-tetrahydro-5H-pyrimido[4,5-b][1,4]diazepin-2-yl)amino)-N-(1-(2-(2-(2-((2-(2,6-dioxopiperidin-3-yl)-1,3-dioxoisoindolin-4-yl)amino)ethoxy)ethoxy)ethyl)piperidin-4-yl)-3-(2-hydroxyethoxy)benzamide], the half-maximal degradation concentration (DC50) is at most 0.5 µM and the Dmax is 60 to 80%.

Take `COc1cc(C(=O)NC2CCN(CCCn3cnc(CNc4cccc5c4C(=O)N(C4CCC(=O)NC4=O)C5=O)c3)CC2)c(F)cc1Nc1ncc2c(n1)N(C1CCCC1)CC(F)(F)C(=O)N2C` (stereo not drawn) [Compound 43]: the DC50 is at most 0.05 µM and the Dmax is at least 80%.

On to `COc1cc(C(=O)NCCOCCCOCCNc2cccc3c2C(=O)N(C2CCC(=O)NC2=O)C3=O)c(F)cc1Nc1ncc2c(n1)N(C1CCCC1)CC(F)(F)C(=O)N2C` (stereo not drawn) [Compound 156, 4-((9-cyclopentyl-7,7-difluoro-5-methyl-6-oxo-6,7,8,9-tetrahydro-5H-pyrimido[4,5-b][1,4]diazepin-2-yl)amino)-N-(2-(3-(2-((2-(2,6-dioxopiperidin-3-yl)-1,3-dioxoisoindolin-4-yl)amino)ethoxy)propoxy)ethyl)-2-fluoro-5-methoxybenzamide], for which the DC50 is at most 0.05 µM and the greatest degradation seen (Dmax) was at least 80%.

As for `COc1cc(C(=O)NC2CCN(CC(=O)NCCOCCNc3cccc4c3C(=O)N(C3CCC(=O)NC3=O)C4=O)CC2)c(F)cc1Nc1ncc2c(n1)N(C1CCCC1)CC(F)(F)C(=O)N2C` (stereo not drawn) [Compound 35, 4-((9-cyclopentyl-7,7-difluoro-5-methyl-6-oxo-6,7,8,9-tetrahydro-5H-pyrimido[4,5-b][1,4]diazepin-2-yl)amino)-N-(1-(2-((2-(2-((2-(2,6-dioxopiperidin-3-yl)-1,3-dioxoisoindolin-4-yl)amino)ethoxy)ethyl)amino)-2-oxoethyl)piperidin-4-yl)-2-fluoro-5-methoxybenzamide], the half-maximal degradation concentration (DC50) is at most 0.05 µM and the Dmax is at least 80%.

For the compound `COc1cc(C(=O)NCCCCCCc2cccc3c2CN(C2CCC(=O)NC2=O)C3=O)c(F)cc1Nc1ncc2c(n1)N(C1CCCC1)CC(F)(F)C(=O)N2C` (stereo not drawn) [Compound 164, 4-((9-cyclopentyl-7,7-difluoro-5-methyl-6-oxo-6,7,8,9-tetrahydro-5H-pyrimido[4,5-b][1,4]diazepin-2-yl)amino)-N-(6-(2-(2,6-dioxopiperidin-3-yl)-1-oxoisoindolin-4-yl)hexyl)-2-fluoro-5-methoxybenzamide], the 50% degradation concentration (DC50) was at most 0.5 µM and the Dmax was in the range of 60 to 80%.

Consider `COc1cc(C(=O)NC2CCN(CCOCCOCCOCCOCC(=O)Nc3cccc4c3C(=O)N(C3CCC(=O)NC3=O)C4=O)CC2)c(F)cc1Nc1ncc2c(n1)N(C1CCCC1)CC(F)(F)C(=O)N2C` (stereo not drawn) [Compound 27, 14-(4-(4-((9-cyclopentyl-7,7-difluoro-5-methyl-6-oxo-6,7,8,9-tetrahydro-5H-pyrimido[4,5-b][1,4]diazepin-2-yl)amino)-2-fluoro-5-methoxybenzamido)piperidin-1-yl)-N-(2-(2,6-dioxopiperidin-3-yl)-1,3-dioxoisoindolin-4-yl)-3,6,9,12-tetraoxatetradecanamide], for which the 50% degradation concentration (DC50) is at most 0.5 µM and the Dmax is 60 to 80%.

With `COc1cc(C(=O)NC2CCN(CCN3CCN(c4ccc5c(c4)C(=O)N(C4CCC(=O)NC4=O)C5=O)CC3)CC2)c(F)cc1Nc1ncc2c(n1)N(C1CCCC1)CC(F)(F)C(=O)N2C` (stereo not drawn) [Compound 68, 4-((9-cyclopentyl-7,7-difluoro-5-methyl-6-oxo-6,7,8,9-tetrahydro-5H-pyrimido[4,5-b][1,4]diazepin-2-yl)amino)-N-(1-(2-(4-(2-(2,6-dioxopiperidin-3-yl)-1,3-dioxoisoindolin-5-yl)piperazin-1-yl)ethyl)piperidin-4-yl)-2-fluoro-5-methoxybenzamide], the DC50 is at most 0.5 µM and the Dmax fell in the range of 60 to 80%.

On to `COc1cc(C(=O)N[C@H]2CCN(CC(=O)NCCOCCNc3cccc4c3C(=O)N(C3CCC(=O)NC3=O)C4=O)C2)c(F)cc1Nc1ncc2c(n1)N(C1CCCC1)CC(F)(F)C(=O)N2C` (stereo partly drawn) [Compound 121, 4-((9-cyclopentyl-7,7-difluoro-5-methyl-6-oxo-6,7,8,9-tetrahydro-5H-pyrimido[4,5-b][1,4]diazepin-2-yl)amino)-N-((3S)-1-(2-((2-(2-((2-(2,6-dioxopiperidin-3-yl)-1,3-dioxoisoindolin-4-yl)amino)ethoxy)ethyl)amino)-2-oxoethyl)pyrrolidin-3-yl)-2-fluoro-5-methoxybenzamide], for which the DC50 was at most 0.05 µM and the maximal degradation (Dmax) was at least 80%.
